In article PMC4879574, “Identification of Leishmania donovani Topoisomerase 1 inhibitors via intuitive scaffold hopping and bioisosteric modification of known Top 1 inhibitors” (Scientific Reports, 2016):
“And” between values parts separate entries of the source, which are not always exact repeats. Equal entries are not always repeated. Where two headings read alike, the source gives them in different places.

Columns and labels:
[1] = target: Leishmania donovani Topoisomerase 1 (LdTop1) (Leishmania donovani, UniProt A0A3Q8IHS4+Q8WQM6); experiment: Plasmid DNA relaxation assay, LdTop1 (simultaneous incubation); format: biochemical
Leishmania donovani Topoisomerase 1 (LdTop1), sequence (Q8WQM6 entry or part of it): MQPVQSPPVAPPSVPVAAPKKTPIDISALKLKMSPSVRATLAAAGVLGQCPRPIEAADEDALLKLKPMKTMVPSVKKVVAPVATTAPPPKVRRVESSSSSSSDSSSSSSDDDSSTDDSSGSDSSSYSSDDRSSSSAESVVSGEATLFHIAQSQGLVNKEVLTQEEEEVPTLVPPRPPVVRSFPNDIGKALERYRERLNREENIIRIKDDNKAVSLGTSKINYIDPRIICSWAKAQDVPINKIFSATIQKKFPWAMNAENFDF
Leishmania donovani Topoisomerase 1 (LdTop1), sequence (A0A3Q8IHS4 entry or part of it): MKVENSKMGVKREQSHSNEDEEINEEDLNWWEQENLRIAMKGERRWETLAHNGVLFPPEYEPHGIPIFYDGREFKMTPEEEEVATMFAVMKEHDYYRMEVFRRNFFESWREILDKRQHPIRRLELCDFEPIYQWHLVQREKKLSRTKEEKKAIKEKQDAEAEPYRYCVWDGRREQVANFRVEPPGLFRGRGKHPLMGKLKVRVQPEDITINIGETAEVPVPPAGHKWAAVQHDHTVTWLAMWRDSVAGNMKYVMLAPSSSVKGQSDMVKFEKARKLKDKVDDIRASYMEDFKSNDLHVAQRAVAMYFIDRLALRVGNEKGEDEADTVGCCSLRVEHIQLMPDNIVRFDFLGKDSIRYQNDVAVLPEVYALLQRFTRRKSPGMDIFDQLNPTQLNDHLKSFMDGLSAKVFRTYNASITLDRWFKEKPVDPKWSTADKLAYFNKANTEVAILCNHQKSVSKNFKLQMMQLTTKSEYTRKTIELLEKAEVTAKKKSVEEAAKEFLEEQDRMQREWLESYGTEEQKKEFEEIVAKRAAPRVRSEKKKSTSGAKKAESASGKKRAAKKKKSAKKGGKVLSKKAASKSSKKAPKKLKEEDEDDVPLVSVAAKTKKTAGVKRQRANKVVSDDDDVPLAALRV
Experimental: To investigate the inhibitory effect of our library compounds on the DNA relaxation activity of the recombinant Human and Leishmania topoisomerase 1 (Table 2), assays were performed involving supercoiled plasmid DNA, the enzymes (HTop1 and LdTop1) and our molecules. The enzymes were purified by the standard literature procedure.
(§1) All the experiments were conducted thrice and representative data from once set of them are expressed as mean ± SD.
(§2) The type I DNA topoisomerase are assayed by decreased mobility of the relaxed isomers of supercoiled pBS (SK^+) [pBlue-script (SK^+)] DNA in agarose gel. The relaxation assay was carried out as described previously with LdTop1B and HTop I, diluted in the relaxation buffer (25 mM Tris–HCl, pH 7.5, 5% glycerol, 0.5 mM DTT, 10 mM MgCl2, 50 mM KCl, […] and […] BSA) and supercoiled plasmid pBS (SK^+) DNA (85–95% were negatively supercoiled, with remainder being nicked circles)[9][28][29]. The reconstituted enzyme LdTop1B was assayed at 50 mM KCl concentration as described before. For all kinetic studies, the reaction mixtures containing the buffer and DNA were heated to 37 °C before addition of the enzymes. The reactions were rapidly quenched using stop solution and kept on ice. The gels were stained with ethidium bromide (EtBr) ([…]) and the amount of supercoiled monomer DNA band fluorescence were quantified by integration using Gel Doc 2000 under UV illumination (Bio-Rad Quantity One Software), as described previously.
Cells harvested from 1 litre of culture were separately lysed by lysozyme/sonication, and the proteins were purified through Ni-NTA (Ni^2+-nitriloacetate-agarose column (Qiagen, Hilden, Germany) followed by a phospho-cellulose column (P11 cellulose; Whatman, Maidstone Kent, UK) as described previously. Finally, the purified proteins LdTOP1L and LdTOP1S were stored at −70 °C. The concentrations of each protein were quantified by using Bradford Reagent (PIERCE, Thermo Fisher Scientific Inc., Rockford, USA). Purified LdTOP1L was mixed with purified LdTOP1S at a molar ratio of 1:1 to a total protein concentration of 0.5 mg/ml in reconstitution buffer [50 mM potassium phosphate, pH 7.5, 0.5 mM DTT, 1 mM EDTA, 0.1 mM PMSF and 10% (v/v) glycerol]. The mixture was dialyzed overnight at 4 °C and dialyzed fractions were used for plasmid relaxation activity.

LdTop1 = LdTop1 (Leishmania donovani, UniProt A0A3Q8IHS4+Q8WQM6); experiment: Preincubation DNA relaxation inhibition assay, LdTop1; format: biochemical
LdTop1, sequence (Q8WQM6 entry or part of it): as the sequence (Q8WQM6 entry or part of it) above
LdTop1, sequence (A0A3Q8IHS4 entry or part of it): as the sequence (A0A3Q8IHS4 entry or part of it) above
Experimental: To interrogate whether compound 4 interacts with the enzyme, it was preincubated with LdTop1 at different concentration for 5 minutes at 37 °C before the addition of substrate DNA (Fig. 9a).
as §1, §2

[2] = system: L. donovani AG83 promastigotes; experiment: MTT assay on extracellular promastigotes; format: cell-based; conditions: Leishmania donovani, 12 h, read-out: Anti-promastigote activity IC50
Experimental: Next, compound 4 was screened against extracellular promastigotes.
L. donovani AG83 promastigotes (3.0 × 10^6 cells/ml) are incubated with different concentrations of drugs/compounds under study (1, 2, 5, 10 and 20 μM) for 12 h, following which the survival percentage is estimated by MTT assay. Yellow MTT (3-(4,5-dimethylthiazol- 2-yl)-2,5-diphenyltetrazolium bromide, a tetrazole) is reduced to purple formazan in the mitochondria of living cells. The formazan is then solubilized, and the concentration is determined by optical density at 570 nm. Metabolically active cells convert MTT to formazan, thereby generating a quantitative measure of viability and cytotoxicity. Percentage of viable promastigotes in each treatment groups are determined with respect to untreated control cells.

[3] = Cytotoxicity on mammalian COS7 cell lines; format: cell-based; conditions: African green monkey, COS7 cells
COS7 cells = experiment: Cytotoxicity on mammalian COS7 cell lines; format: cell-based

Cc1cc2c(c(=O)[nH]1)C(=O)O/C2=C\c1ccc(O)c(O)c1 [Compound 4]
inhibition at 12.5 µM ([1]; LdTop1 relaxation, 12.5 uM, read-out: % inhibition, mean data): 97.2% | inhibition at 25 µM ([1]; LdTop1 relaxation, 25 uM, read-out: % inhibition, mean data): 99.9% | % inhibition (CPT 100%), data 2 ([1]; LdTop1 relaxation, 50 uM): 100.001% | inhibition at 50 µM ([1]; LdTop1 relaxation, 50 uM, read-out: % inhibition, mean data): 100% | % inhibition (CPT 100%), data 2 ([1]; LdTop1 relaxation, 100 uM): 100.003% | inhibition at 100 µM ([1]; LdTop1 relaxation, 100 uM, read-out: % inhibition, mean data): 100% | EC50 ([1]; incubated simultaneously with LdTop1 and supercoiled DNA, read-out: EC50, simultaneous assay): 3.77 ± 0.27 µM | LdTop1 inhibitory activity ([1]; plasmid DNA relaxation): considerable activity | EC50 ([1]; plasmid DNA relaxation, averages of three experiments, read-out: LDTop1 inhibition (EC50)): 4 µM and 3.51 µM | inhibition at 12.5 µM ([1]; read-out: % inhibition (CPT 100%), data 1, LdTop1 relaxation, 12.5 uM): 97.3% | inhibition at 25 µM ([1]; read-out: % inhibition (CPT 100%), data 1, LdTop1 relaxation, 25 uM): 99.9% | inhibition at 50 µM ([1]; read-out: % inhibition (CPT 100%), data 1, LdTop1 relaxation, 50 uM): 100% | inhibition at 100 µM ([1]; read-out: % inhibition (CPT 100%), data 1, LdTop1 relaxation, 100 uM): 100% | inhibition at 0.62 µM ([1]; read-out: % inhibition (CPT 100%), data 1, simultaneous, 0.62 uM): 7.36% | inhibition at 1.25 µM ([1]; read-out: % inhibition (CPT 100%), data 1, simultaneous, 1.25 uM): 23.5% | inhibition at 2.5 µM ([1]; read-out: % inhibition (CPT 100%), data 1, simultaneous, 2.5 uM): 42.8% | inhibition at 5 µM ([1]; read-out: % inhibition (CPT 100%), data 1, simultaneous, 5 uM): 60.1% | inhibition at 10 µM ([1]; read-out: % inhibition (CPT 100%), data 1, simultaneous, 10 uM): 88.3% | inhibition at 20 µM ([1]; read-out: % inhibition (CPT 100%), data 1, simultaneous, 20 uM): 91.6% | inhibition at 12.5 µM ([1]; read-out: % inhibition (CPT 100%), data 2, LdTop1 relaxation, 12.5 uM): 97.1% | inhibition at 25 µM ([1]; read-out: % inhibition (CPT 100%), data 2, LdTop1 relaxation, 25 uM): 99.9% | inhibition at 50 µM ([1]; read-out: % inhibition (CPT 100%), data 2, LdTop1 relaxation, 50 uM): 100% | inhibition at 100 µM ([1]; read-out: % inhibition (CPT 100%), data 2, LdTop1 relaxation, 100 uM): 100% | inhibition at 0.62 µM ([1]; read-out: % inhibition (CPT 100%), data 2, simultaneous, 0.62 uM): 8.88% | inhibition at 1.25 µM ([1]; read-out: % inhibition (CPT 100%), data 2, simultaneous, 1.25 uM): 22.5% | inhibition at 2.5 µM ([1]; read-out: % inhibition (CPT 100%), data 2, simultaneous, 2.5 uM): 43.7% | inhibition at 5 µM ([1]; read-out: % inhibition (CPT 100%), data 2, simultaneous, 5 uM): 60.9% | inhibition at 10 µM ([1]; read-out: % inhibition (CPT 100%), data 2, simultaneous, 10 uM): 86.5% | inhibition at 20 µM ([1]; read-out: % inhibition (CPT 100%), data 2, simultaneous, 20 uM): 92.9% | inhibition at 0.62 µM ([1]; simultaneous, 0.62 uM, read-out: % inhibition, mean data): 8.12% | inhibition at 1.25 µM ([1]; simultaneous, 1.25 uM, read-out: % inhibition, mean data): 23% | inhibition at 2.5 µM ([1]; simultaneous, 2.5 uM, read-out: % inhibition, mean data): 43.3% | inhibition at 5 µM ([1]; simultaneous, 5 uM, read-out: % inhibition, mean data): 60.5% | inhibition at 10 µM ([1]; simultaneous, 10 uM, read-out: % inhibition, mean data): 87.4% | % inhibition, mean data ([1]; simultaneous, 20 uM): 92.2648% | inhibition at 20 µM ([1]; simultaneous, 20 uM, read-out: % inhibition, mean data): ~92% | EC50 ([1]; supplement sheet, simultaneous, concentrations in uM, read-out: EC50 of 4-Sim): 3.77 µM | inhibition at 0.62 µM (LdTop1; pre-incubation, 0.62 uM, read-out: % inhibition, mean data): 27.4% | inhibition at 1.25 µM (LdTop1; pre-incubation, 1.25 uM, read-out: % inhibition, mean data): 49% | inhibition at 2.5 µM (LdTop1; pre-incubation, 2.5 uM, read-out: % inhibition, mean data): 65.9% | inhibition at 5 µM (LdTop1; pre-incubation, 5 uM, read-out: % inhibition, mean data): 91.2% | inhibition at 10 µM (LdTop1; pre-incubation, 10 uM, read-out: % inhibition, mean data): 97.4% | inhibition at 20 µM (LdTop1; pre-incubation, 20 uM, read-out: % inhibition, mean data): ~100% | EC50 (LdTop1; preincubated with LdTop1 5 min 37 °C before DNA, read-out: EC50, preincubation assay): 1.72 ± 0.23 µM | inhibition at 0.62 µM (LdTop1; read-out: % inhibition (CPT 100%), data 1, pre-incubation, 0.62 uM): 27.1% | inhibition at 1.25 µM (LdTop1; read-out: % inhibition (CPT 100%), data 1, pre-incubation, 1.25 uM): 48.2% | inhibition at 2.5 µM (LdTop1; read-out: % inhibition (CPT 100%), data 1, pre-incubation, 2.5 uM): 67.4% | inhibition at 5 µM (LdTop1; read-out: % inhibition (CPT 100%), data 1, pre-incubation, 5 uM): 91.4% | inhibition at 10 µM (LdTop1; read-out: % inhibition (CPT 100%), data 1, pre-incubation, 10 uM): 97.2% | inhibition at 20 µM (LdTop1; read-out: % inhibition (CPT 100%), data 1, pre-incubation, 20 uM): 100% | inhibition at 0.62 µM (LdTop1; read-out: % inhibition (CPT 100%), data 2, pre-incubation, 0.62 uM): 27.7% | inhibition at 1.25 µM (LdTop1; read-out: % inhibition (CPT 100%), data 2, pre-incubation, 1.25 uM): 49.8% | inhibition at 2.5 µM (LdTop1; read-out: % inhibition (CPT 100%), data 2, pre-incubation, 2.5 uM): 64.5% | inhibition at 5 µM (LdTop1; read-out: % inhibition (CPT 100%), data 2, pre-incubation, 5 uM): 91% | inhibition at 10 µM (LdTop1; read-out: % inhibition (CPT 100%), data 2, pre-incubation, 10 uM): 97.5% | inhibition at 20 µM (LdTop1; read-out: % inhibition (CPT 100%), data 2, pre-incubation, 20 uM): 100% | EC50 (LdTop1; supplement sheet, pre-incubation, concentrations in uM, read-out: EC50 of 4-PI): 1.72 µM | IC50 [2]: 4.21 ± 0.21 µM | CC50 [3]: 390.6 ± 3.15 µM | Selectivity Index (SI) (COS7 cells; CC50 against COS7/IC50 against promastigote): ~100 | Cytotoxicity against COS7 (COS7 cells; COS7): no cytotoxicity
